According to patent US7186703B2, “Derivatives of branched-chain lipophilic molecules and uses thereof” (D-Pharm Ltd., priority 2000, dated 2007):
Read-outs that look alike come from different tables or passages of the source.

Key:
[1] = test system: HL60 myeloid leukemia cell line; assay: MTT cytotoxicity, HL60; format: cell-based, human; conditions: HL60, three days, read-out: EC50 (50% reduction in cell viability)
Procedure: (§1) The cytotoxic activity of various phospho-derivatives of branched-chain fatty acids (DP-BFAs) was assayed in vitro in cell cultures that include normal and malignant cell types. The following cell systems were used: • Primary fibroblasts (human) • Normal bone marrow (BM) cells (mouse) • Primary bronchial epithelial cells (human, from Clonetics, cat. no. CC-2541) • Caco-2—colon cancer cell line (human, ATTC, HTB-37) • C6 glioma cell line (rat, ATCC, CRL-2199) • Neuro2a—neuroblastoma cell line (mouse, ATCC, CCL-131) • SKBR-3—breast cancer cell line (human, ATTC, HTB-30) • HL60—myeloid leukemia cell line (human, ATCC, CCL-240) • U937—myeloid leukemia cell line (human)
(§2) Cells were seeded in a microtiter plate in MEM containing 2 mM L-glutamine, 100 units/ml penicillin, 100 ug/ml streptomycin and 10% FCS at 37° C. The cultured cells were incubated, during their linear growth phase in the absence (control group) or presence of various DP-BFAs as indicated. The final concentrations of the tested DP-BFAs ranged from 1.5 to 200 microMolars. At the end of the incubation period, which was five days for the bone marrow cells and three days for all the other cell lines, the cytotoxic effect of the added P-BFA on the cells was estimated by using the colorimetric MTT assay. The MTT assay (Mosmann (1983) J. Immunol Methods 65: 55–63) measures mitochondrial reductase activity and serves for quantitative assessment of cellular viability. Drug concentration that causes 50% reduction in cell viability in comparison to the control group, is defined as EC50. The EC50 values of the tested DP-BFA compounds were calculated from dose response curves established for each of the different assayed cell lines.
(§3) Each EC50 value is an average of EC50 values derived from 1–5 independent experiments.

[2] = test system: Primary bronchial epithelial cells; assay: MTT cytotoxicity, normal primary epithelial cells; format: cell-based, human; conditions: Normal primary epithel, three days, read-out: EC50 (50% reduction in cell viability)
Procedure: as §1, §2, §3

[3] = test system: U937 myeloid leukemia cell line; assay: MTT cytotoxicity, U937; format: cell-based, human; conditions: U937, three days, read-out: EC50 (50% reduction in cell viability)
Procedure: as §1, §2, §3

[4] = test system: Normal bone marrow (BM) cells; assay: MTT cytotoxicity, normal bone marrow cells; format: cell-based, mouse; conditions: five days, read-out: EC50 (50% reduction in cell viability)
Procedure: as §1, §2, §3

[5] = test system: blood brain barrier (BBB); assay: BBB permeability to EB-albumin and Fluorescein in normal rat brains; format: in vivo; conditions: compounds at EC50 (Mannitol 25%); for % EB/g brain: control 0.04 ± 0.01; for Brain fluorescein uptake (% of serum F-Na level): control 0.3 ± 0.08; for Ratio F-Na/EB (mean of individual ratios): control 9.5 ± 1.6
From the text: The effect of various DP-BFAs on BBB permeabilization to molecules of different sizes was examined in vivo in the model system of normal rat brains.
The transport of two markers was followed: a) Evans blue bound to albumin (MW 70 kD) as an indicator for paracellular transport; and b) Fluorescein sodium salt (MW 376 D) that represents small size molecules.
The Evans blue dye (EB) and Fluorescein sodium salt (F—Na) were infused into the artery carotis externa over 30 seconds according to the protocol described above in Example 17. The test compounds were used at their EC50 concentrations. Control animals were treated with vehicle solution.
Evans blue extravasation is expressed as the percentage of the total amount of EB accumulated per one gram of brain tissue. The transport of fluorescein into the brain, which is dependent on the serum concentration of this molecule, is presented as percentage of the F—Na level in the serum.

[6] = test system: SKBR-3 breast cancer cell line; assay: MTT cytotoxicity, SKBR-3; format: cell-based, human; conditions: three days, read-out: EC50 (50% reduction in cell viability)
Procedure: as §1, §2, §3

[7] = test system: Neuro2a neuroblastoma cell line; assay: MTT cytotoxicity, Neuro2a; format: cell-based, mouse; conditions: three days, read-out: EC50 (50% reduction in cell viability)
Procedure: as §1, §2, §3

[8] = test system: Caco-2 colon cancer cell line; assay: MTT cytotoxicity, Caco-2; format: cell-based, human; conditions: Caco-2, three days, read-out: EC50 (50% reduction in cell viability)
Procedure: as §1, §2, §3

[9] = test system: blood brain barrier (BBB); assay: BBB permeabilization in rats, Evans blue extravasation into brain; format: in vivo, Sprague-Dawley rats; conditions: for MEC (minimal effective concentration): concentration giving 3 μg EB/g brain
From the text: Permeabilization of the BBB by DP-BFA was investigated in rat model system by monitoring accumulation in the brain of two markers: a) Evans blue dye (EB), which rapidly binds in vivo with albumin (NW 70 kD) and is an indicator for paracellular transport; and b) Fluorescein sodium salt (F—Na), MW 376 D, which is transported via the cellular space, and enables monitoring transcellular transport. Upon BBB disruption the Evans blue-albumin complex irreversibly accumulates in the intercellular space of the brain. The much smaller tracer fluorescein may be transported intracellularly to occupy both inter and intracellular space in the brain.
Blood brain barrier permeabilization in Sprague-Dawley rats was induced by brief exposure to DP-BFA. The animals were anesthetized with Rampun-Imalgen and DP-BFA test compounds were administered via the external carotid artery retrograde to the brain (Smith, Q. R. Methods of study. In: Physiology and Pharmacology of the Blood-Brain Barrier. Ed. Bradbury M. W. B. Spinger-Verlag. Berlin-Heidelberg-NY; 1992: 24–52). The pterygo-palathina artery was ligated to avoid escape of infused solutions towards the external head vasculature. DP-BFA solutions were infused over a period of 30 seconds or half an hour, using a Harvard Apparatus Syringe Pump. Blood flow through carotid communis artery was interrupted only at the time of infusion.
All tested DP-BFA molecules were prepared from stock solutions in either water or ethanol by diluting 200–1000 fold into solution of isosmotic mannitol (5%) in Tromethamine buffer (Sigma) or PBS (pH 7.4)
The markers, Evans blue (EB, 25 mg/ml) and fluorescein (F—Na, 12.5 mg/ml), in 1 ml solution, were injected intravenously immediately following administration of the tested DP-BFA, or after a specific time interval if reversibility of action was investigated. Supportive i.v. infusion of F—Na (12.5 mg/ml–100 μl/min) was performed for 8 minutes. Brains were washed with saline solution (60 ml) 10 min after the intracarotid “flash”. Brain ipsilateral and contralateral hemispheres and tumors, where applicable, were homogenized separately with 50% trichloroacetic acid (TCA). The markers concentrations in the cortex and in tumors, where, applicable, were determined spectrofluorometrically (Uyama, O. et al., (1988) J. Cereb. Blood Flow Metab. 8, 282–284: Abraham et al., (1996) Neurosci. Lett. 208, 85–88). The markers content was calculated as μg marker per one-gram brain tissue. Standard error and Student's test for statistical significance were used.
The experiment was carried out on male Sprague-Dawley rats weighing 250–320 g. The procedure described above in Example 17 was followed.
The effect of the tested compounds on the BBB opening was evaluated by two parameters:
a) efficacy—The degree of BBB opening estimated in terms of accumulation of Evans Blue albumin (μg EB/g brain tissue); and
b) potency—measured in terms of EC50 and minimal effective concentration (MEC) values. EC50 is the concentration of a tested compound producing 50% of the maximal effect of Evans Blue extravasation.
The effect of various DP-BFAs on BBB permeability was tested in the model system of rat brains, as described above in Example 17. Efficacy, namely the level of the BBB opening was expressed as the amount of Evans blue accumulated in the brain (μg EB/g brain). Potency of the tested molecules was estimated by their calculated EC50 and minimal effective concentration (MEC) values.

[10] = test system: Chinese hamster ovary (CHO) AA8 cell line; assay: LDH release toxicity assay in cultured CHO AA8 cells; format: cell-based; conditions: 1 hour incubation, read-out: LC50 (the source's name)
Procedure: Various DP-BFA molecules were screened in cultured Chinese hamster ovary (CHO) AA8 cell line in order to establish their toxicity. LC50 values, i.e. the concentrations causing death in 50% of cell population, were calculated from dose response curves. LC50 values of phospho-BFAs were compared to those of the corresponding branched fatty acids (=carbo-BFAs).
Lactate dehydrogenase (LDH) release was used as an assay for the integrity of the cells membrane and, thus, for estimation of toxicity. Cells (2×10^5/ml) were seeded (150 μl/well) in 96 well plates, in RPMI-1640 medium containing 10% FCS. After two days, tested DP-BFA compounds or the control compound myristic acid were added to the plates in declining concentrations ranging from 500 to 1 μg/ml. Cells were harvested after one hour. […] Other controls included, two blank wells and five wells containing cells with no additional drugs. Following centrifugation (1500 rpm, 5 min), 75 μl of the supernatant was transferred to a new plate with 45 μl of an LDH assay mix (Tox-7 kit, Sigma). After 10–20 minutes at room temperature, absorbance was measured using an Elisa Reader 490 nm.
Each experiment was performed in triplicate.

[11] = format: in vivo; conditions: rats, sodium salt
Procedure: DP-BFA molecules were evaluated for safety and toxicity. Increasing doses of the tested compounds were administered intra-arterially (i.a.) into rats following the protocol described above in Example 17. Animal viability was monitored for 24 hours to evaluate lethal concentrations (LC). LC is defined as the minimal concentration that caused death.
Safety index is defined as the ratio between the lethal dose (LC) and the minimal effective concentration (MEC), wherein MEC corresponds to a calculated concentration of the tested compound that elicits accumulation of three times the amount of Evans blue accumulated in control animals treated with vehicle only, i.e. total accumulation of 3 μg EB. The higher the LC/MEC ratio is, the higher the safety index.

[12] = Octanol/saline solubility and partition coefficient, shake-flask technique
Procedure: The lipophilicity values of various derivatives of branched fatty acids were estimated by comparing the solubility of these compounds in organic versus aqueous solutions. Octanol and physiological saline were used, respectively, as the organic and aqueous solutions. The partition coefficient (Pc) value, i.e. the octanol/saline distribution was measured by the shake-flask technique.

[13] = Table 6, rat brains, Evans blue extravasation, read-out: EQ50 (the source's name)

Molecule | EC50 [3] | % EB/g brain [5] | Brain fluorescein uptake (% of serum F-Na level) [5] | Ratio F-Na/EB (mean of individual ratios) [5] | EC50 [6] | EC50 [7] | EC50 [8] | MEC (minimal effective concentration) ([9]; Table 6) | EC50 [9, 13] | CC50 [10] | also measured
4-Octadecanyl phosphocholine [3,14-PC] | 4 µM | – | – | – | – | – | – | – | – | – | EC50 [1]: 7 µM; EC50 [2]: 72 µM; EC50 [4]: 160 µM
CCCCCCCCCCCCC(CCC)C(=O)OCCOP(=O)([O-])[O-].[Na+].[Na+] (centres unmarked) [3,12-MEG-PO4Na2, 2-(2′-Propyltetradecanoyloxy)ethyl Disodium Phosphate] | 75 µM | 0.8 ± 0.1% | 5.0 ± 0.8 % of the F—Na level in the ser | 8.4 ± 0.9 | > 200 µM | 60 µM | > 200 µM | 11 ± 2 µM | 18 ± 3 µM | – | μg EB/g brain (at EC50) ([9]; Table 6, at EC50 (Mannitol at 25%)): 5 ± 1 μg EB/g brain
CCCCCCCCCCCCC(CCC)OP(=O)([O-])[O-].[Na+].[Na+] (centres unmarked) [3,12-PO4Na2, 4-Hexadecanyl Disodium Phosphate] | 90 µM | 2.9 ± 0.6% | 8.2 ± 0.9 % of the F—Na level in the ser | 5.9 ± 1.0 | > 200 µM | 105 µM | > 200 µM | 3.3 ± 0.5 µM | 55 ± 1 µM | 320 µM | μg EB/g brain (at EC50) ([9]; Table 6, at EC50 (Mannitol at 25%), listed as 3,12-PO4-Na2): 20 ± 3 μg EB/g brain; μg EB/g brain (at EC50) ([9]; Table 6, at EC50 (Mannitol at 25%), listed as 3,12-PO4—Na2): 20 μg EB/g brain
CCCCCCCCCCCCCCCCCCC(CCC)C(=O)OCCOCCOP(=O)([O-])OCC[N+](C)(C)C (centres unmarked) [3,18-DEG-PC, 2-(2′-Propyleicosanoyloxy)ethoxyethylphosphocholine] | – | – | – | – | – | – | – | – | – | – | EC50 ([1]; Homo sapiens, HL-60, 72 h): 13 µM; EC50 ([2]; Homo sapiens, Primary bronchial epithelial cell, 72 h): 60 µM; EC50 ([3]; Homo sapiens, U-937, 72 h): 6 µM; EC50 ([4]; Mus musculus, Bone marrow cell, 120 h): 80 µM
CCCCCCCC(CCCCCCC)C(=O)[O-].[Na+] [7,7-Na, reference compound] | – | – | – | – | – | – | – | – | – | 65 µM | LC (minimal concentration that caused death) ([11]; i.a., viability monitored 24 hours): 360 ± 67 µM; Safety LC/MEC [11]: 2.7; μg EB/g brain (at EC50) ([9]; Table 5, at EC50): 4.2 ± 0.6 μg EB/g brain; MEC (minimal effective concentration) ([9]; Table 5): 132 ± 19; EC50 ([9]; Table 5, rat brain, intracarotid infusion, read-out: EC50 (Evans Blue extravasation)): 184 ± 21 µM; MEC ([9]; Table 8, sodium salt, in µM): 132 ± 19; LogPc (octanol-saline partition coefficient) ([12]; octanol/physiological saline, sodium salts): 1.33; Water mg/ml (solubility in aqueous solution) ([12]; physiological saline as aqueous solution, sodium salts): >25 mg/mL; Octanol mg/ml (solubility in octanol) ([12]; sodium salts of the branched fatty acids and their PO4 derivatives): >50 mg/mL
CCCCCCCC(CCCCCCC)OP(=O)(O)O [7,7-PO4Na2, 8-Pentadecanyl Disodium Phosphate] | – | – | – | – | – | – | – | – | – | 320 µM | –
